Legend:
[1] = test system: sod-3::gfp; assay: sod-3::gfp fluorescent reporter stress response assay; assay type: in vivo, C. elegans; conditions: 100 μM paraquat, positive control; strain CF1553; p<0.05
Experimental: Three commonly used fluorescent reporter assays were performed to detect potential markers of stress: a DAF-16::GFP translocation into the nuclei of cells in a strain [TJ356-zIs356 (pDAF-16::DAF-16-GFP;rol-6)]; an hsp-16.2 expression [TJ375-gpls 1 (hsp-16.2p::GFP)]; and a sod-3 expression [CF1553-muIs84([pAD76]sod-3p::GFP+rol-6[su1006])]. Henderson, S. T., Johnson, T. E. daf-16 integrates developmental and environmental inputs to mediate aging in the nematode Caenorhabditis elegans. Current Biology. 11 (24), 1975-1980 (2001); Rea, S. L., Wu, D., Cypser, J. R., Vaupel, J. W., Johnson, T. E. A stress-sensitive reporter predicts longevity in isogenic populations of Caenorhabditis elegans. Nature Genetics. 37 (8), 894-898 (2005); and, Libina, N., Berman, J. R., Kenyon, C. […]
At day 3 of adulthood, the nematodes were harvested with an eyelash pick and mounted to a coverslip with 1 μL of a 36% poloxamer 407 surfactant solution to immobilize the nematodes. […] Differences in the fluorescent localization between the three groups was recorded and results compared using an ordinal logistics statistical model in statistical analysis software (DAF-16::GFP assay) and for the hsp-16.2 and the sod-3 expression assays, a one-way ANOVA with α=0.05 and Tukey's post hoc tests with α=0.05 was used to compare the total fluorescence of the head region. […]

[2] = test system: C. elegans; assay: Motility assay (motility class scoring); assay type: in vivo; conditions: 100 μM FUDR in NGM; days 2, 4, 6 and 8 of adulthood; p>0.05
Experimental: (§1) The three groups tested were separated by: 1) individual picking, wherein nematodes were selected and transferred manually using a platinum loop; 2) the chemical treatment fluorodeoxyuridine (FUDR), wherein 100 mg/mL FUDR was added to the NGM media to a final concentration of 100 μM to prevent any progeny production, and then the nematodes were transferred every other day to a fresh NGM plate to avoid food depletion; and, 3) the device of Example 1.
In C. elegans the normal sinusoidal movement (i.e., motility) declines with age and is a marker of overall health. To determine if the present device influenced motility, motility scores were compared for pick, FUDR, and present filter membrane device treatment groups on days 2, 4, 6, and 8 of adulthood. The mobility assay was performed as disclosed by Hendon et al. Stochastic and genetic factors influence tissue-specific decline in ageing C. elegans. Nature. 419 (6909), 808-814 (2002). The nematodes were assigned a motility score and assigned to a class (A, B, or C). Class A individuals move spontaneously in a normal, sinusoidal pattern. Class B individuals move in markedly non-sinusoidal movements and may require prodding to encourage movement. Class C individuals move their head and/or tail in response to prodding but are unable to move across the agar.

[3] = test system: C. elegans; assay: Gentle touch response (anterior and posterior); assay type: in vivo; conditions: 100 μM FUDR in NGM; any day of testing (days 2, 4, 6, 8); p>0.4
Experimental: as §1
Response to mechanical stimulus is a physiological marker to assess aging or general health; thus, the impact of different transfer methods on both the anterior and the posterior gentle touch responses were tested. Responses to a gentle touch were compared between the three treatment groups, wherein the assay was performed based on the methods described by Calixto et al. Enhanced neuronal RNAi in C. elegans using SID-1. Nature Methods. 7 (7), 554-559 (2010). The anterior and posterior touch response was recorded by gently stroking an eyelash pick perpendicularly across the tail or the head (5× each, alternating head and tail) of the animals. Any movement in the opposite direction of the stroke was scored as 1 point on a scale of 0 to 5 for both the anterior and the posterior response. A statistical analysis with a one-way ANOVA with α=0.05 and Bonferroni post-tests with α=0.05 was conducted using the recorded scored.

[4] = test system: C. elegans; assay: Pharyngeal pump rate; assay type: in vivo; conditions: 100 μM FUDR in NGM; days 6 and 8 of adulthood; p<0.001
Experimental: as §1
The ability of C. elegans' pharyngeal muscles to pump declines with age and is another biomarker of healthspan. To determine if the present filter membrane device influenced the nematodes' pharyngeal pump rate, the three treatment groups were compared on days 2, 4, 6, and 8 of adulthood (n=8 to 10 per group). The grinder movement of the nematode's terminal pharyngeal bulb was visually counted under a stereomicroscope at a 600× final magnification for 1 minute, wherein a statistical analysis with a one-way ANOVA with α=0.05 and Bonferroni post-tests with α=0.05 was performed.

SMILES | SOD-3 expression (sod-3::gfp fluorescence of head region) versus pick and device groups [1] | motility class distribution compared with pick and device groups [2] | anterior and posterior gentle touch response compared with pick and device groups [3] | pharyngeal pump rate, FUDR versus picking group [4]
C[n+]1ccc(-c2cc[n+](C)cc2)cc1 [paraquat] | high expression of sod-3::gfp | – | – | –
O=c1[nH]c(=O)n([C@H]2C[C@H](O)[C@@H](CO)O2)cc1F [FUDR, 5-fluorodeoxyuridine] | – | no difference | no statistically significant difference | significant difference

Reference: US20190090458A1, “DEVICE FOR OBTAINING AGE/SIZE-MATCHED NEMATODES AND METHODS OF USE” (University of Alaska, Fairbanks, priority 2017, published 2019)
